Assay results taken from US9090600B2, “Fungicidal 4-substituted-3-{phenyl[(heterocyclylmethoxy)imino]methyl}-1,2,4-oxadizol-5(4H)-one derivatives” (BAYER INTELLECTUAL PROPERTY GMBH, priority 2011, dated 2015).
Where two headings read alike, the source gives them in different places. Marks after values point to notes of the source that are not given here.

Key:
[1] = tested on: Mycosphaerella graminicola; assay: In vivo test on Mycosphaerella graminicola (wheat leaf spot); settings: wheat plants, spray, 500 ppm, grading 21 to 28 days after contamination
Description: The active ingredients tested are prepared by homogenization in a mixture of acetone/tween/DMSO, then diluted with water to obtain the desired active material concentration.
Wheat plants (Scipion variety), sown on a 50/50 peat soil-pozzolana substrate in starter cups and grown at 22° C. (12 h)/20° C. (12 h), are treated at the 1-leaf stage (10 cm tall) by spraying with the aqueous suspension described above. Plants, used as controls, are treated with an aqueous solution not containing the active material.
After 24 hours, the plants are contaminated by spraying them with an aqueous suspension of cryopreserved Mycosphaerella graminicola spores (500.000 spores per ml). The contaminated wheat plants are incubated for 72 hours at 18° C. and at 100% relative humidity, and then for 21 to 28 days at 90% relative humidity.
Grading (% of efficacy) is carried out 21 to 28 days after the contamination, in comparison with the control plants.
(§1) Under these conditions, good (at least 70%) or total protection is observed at a dose of 500 ppm with the following compounds: […]

[2] = pH 2.7
Phytophthora infestans [3] = assay type: in vivo; settings: tomato plants, spray, 500 ppm, grading 5 days after contamination
Plasmopara viticola = assay: Plasmopara test (grapevines)/preventive; assay type: in vivo; settings: preventive spray, 10 ppm of active ingredient, evaluated 6 days after inoculation
Description: Solvent: 24.5 parts by weight of acetone • 24.5 parts by weight of dimethylacetamide
Emulsifier: 1 part by weight of alkylaryl polyglycol ether
To produce a suitable preparation of active compound, 1 part by weight of active compound is mixed with the stated amounts of solvent and emulsifier, and the concentrate is diluted with water to the desired concentration.
To test for preventive activity, young plants are sprayed with the preparation of active compound at the stated rate of application. After the spray coating has dried on, the plants are inoculated with an aqueous spore suspension of Plasmopara viticola and then remain for 1 day in an incubation cabinet at approximately 20° C. and a relative atmospheric humidity of 100%. The plant is subsequently placed for 4 days in a greenhouse at approximately 21° C. and a relative atmospheric humidity of approximately 90%. The plants are then misted and placed for 1 day in an incubation cabinet.
The test is evaluated 6 days after the inoculation. 0% means an efficacy which corresponds to that of the untreated control, while an efficacy of 100% means that no disease is observed.

Puccinia recondita = assay: In vivo test on Puccinia recondita (brown rust); settings: wheat plants, spray, 500 ppm, grading 10 days after contamination
Description: The active ingredients tested are prepared by homogenization in a mixture of acetone/tween/DMSO, then diluted with water to obtain the desired active material.
Wheat plants (Scipion variety) sown on 50/50 peat soil-pozzolana substrate in starter cups and grown at 22° C. (12 h)/20° C. (12 h), are treated at the 1-leaf stage (10 cm tall) by spraying with the aqueous suspension described above.
Plants, used as controls, are treated with an aqueous solution not containing the active material. After 24 hours, the plants are contaminated by spraying the leaves with an aqueous suspension of Puccinia recondite spores (100.000 spores per ml). The spores are collected from a 10-day-old contaminated wheat and are suspended in water containing 2.5 ml/l of tween 80 10%. The contaminated wheat plants are incubated for 24 hours at 20° C. and at 100% relative humidity, and then for 10 days at 20° C. and at 70% relative humidity. Grading is carried out 10 days after the contamination, in comparison with the control plants.
as §1

Phytophthora infestans [4] = assay type: in vivo; settings: tomato, preventive spray, 100 ppm of active ingredient, evaluated 7 days after inoculation

| SMILES | Eff. % [1] | LogP [2] | Eff. % (Phytophthora infestans [3]) | Eff. % (Plasmopara viticola) | Eff. % (Puccinia recondita) | Eff. % (Phytophthora infestans [4]) |
| --- | --- | --- | --- | --- | --- | --- |
| Cn1c(/C(=N\OCc2cccc(NC(=O)Cc3ccccc3)n2)c2ccccc2)noc1=O [Example 341] | 70% | 3.53 [a] | 100% | – | – | – |
| C#CCCC(C)OC(=O)Nc1cccc(CO/N=C(/c2ccccc2)c2noc(=O)n2CC)n1 (stereo not drawn) [Example 207] | 79% | 4.04 [a] | 100% | – | – | – |
| C#CC(C)(C)OC(=O)Nc1cccc(CO/N=C(/c2ccccc2)c2noc(=O)n2C)n1 [Example 317] | – | 3.6 [a] | 98% | 91% | 81% | – |
| Cn1c(/C(=N\OCc2csc(NC(=O)c3ccccc3I)n2)c2ccccc2)noc1=O [Example 158] | 80% | 3.6 [a] | 85% | – | – | – |
| Cn1c(/C(=N\OCc2cccc(NC(=O)CCCCBr)n2)c2ccccc2)noc1=O [Example 73] | – | 3.59 [a] | 100% | – | 81% | – |
| Cn1c(/C(=N\OCc2cccc(NC(=O)CCCl)n2)c2ccccc2)noc1=O [Example 63] | – | 3.02 [a] | 100% | – | 75% | – |
| CCCCCOC(=O)Nc1nc(CO/N=C(/c2ccccc2)c2noc(=O)n2C)cs1 [Example 12] | – | 4.11 [a] | – | 94% | – | 95% |
| Cn1c(/C(=N\OCc2cccc(NC(=O)C(C)(C)C)n2)c2ccccc2)noc1=O [Example 148] | – | 3.48 [a] | 100% | 100% | – | 97% |
| C#CCCC(C)OC(=O)Nc1cccc(CO/N=C(/c2ccccc2)c2noc(=O)n2C)n1 (stereo not drawn) [Example 395] | – | 3.8 [a] | 99% | 93% | 72% | – |
| COc1cccc(/C(=N/OCc2cccc(NC(=O)OC(C)(C)C)n2)c2noc(=O)n2C)c1 [Example 131] | – | 3.99 [a] | 100% | – | 81% | – |
| C#CCCOC(=O)Nc1cccc(CO/N=C(/c2ccccc2)c2noc(=O)n2CC)n1 [Example 104] | – | 3.51 [a] | – | 100% | – | 93% |
| COc1cccc(/C(=N/OCc2cccc(N)n2)c2noc(=O)n2C)c1 [Example 108] | 71% | 1.32 [a] | 100% | – | – | – |
| CCCCCCNc1cccc(CO/N=C(/c2ccccc2)c2noc(=O)n2C)n1 [Example 163] | – | 2.64 [a] | – | 96% | – | 95% |
| Cn1c(/C(=N\OCc2csc(NC(=O)C3CCc4ccccc4O3)n2)c2ccccc2)noc1=O (stereo not drawn) [Example 11] | – | 3.94 [a] | – | 98% | – | 100% |
| Cn1c(/C(=N\OCc2cccc(NCCc3ccccc3)n2)c2ccccc2)noc1=O [Example 74] | – | 2.78 [a] | – | 94% | – | 95% |
| Cn1c(/C(=N\OCc2cccc(NC(=O)CCc3ccccc3)n2)c2ccccc2)noc1=O [Example 347] | – | 3.78 [a] | 100% | 100% | – | 92% |
| CC(C)C(C)OC(=O)Nc1cccc(CO/N=C(/c2ccccc2)c2noc(=O)n2C)n1 (stereo not drawn) [Example 292] | – | 4.27 [a] | 99% | 90% | 75% | – |
| Cn1c(/C(=N\OCc2cccc(NC(=O)CCc3ccccc3)n2)c2ccc(F)cc2)noc1=O [Example 324] | – | 3.87 [a] | 94% | – | 75% | – |
| CCn1c(/C(=N\OCc2cccc(NC(=O)Cc3ccc(OC)cc3)n2)c2ccccc2)noc1=O [Example 88] | – | 3.7 [a] | 98% | – | 78% | – |

| SMILES | Eff. % [1] | LogP [2] | Eff. % (Phytophthora infestans [3]) | Eff. % (Plasmopara viticola) | Eff. % (Puccinia recondita) | Eff. % (Phytophthora infestans [4]) |
| --- | --- | --- | --- | --- | --- | --- |
| Cn1c(/C(=N\OCc2csc(NC(=O)c3ccccc3Cl)n2)c2ccccc2)noc1=O [Example 57] | 79% | 3.46 [a] | 85% | – | – | – |
| CCCCCC(=O)Nc1nc(CO/N=C(/c2ccccc2)c2noc(=O)n2C)cs1 [Example 198] | – | 3.76 [a] | – | 100% | – | 95% |
| Cn1c(/C(=N\OCc2cccc(NC(=O)OC3CCCCC3)n2)c2ccc(F)cc2)noc1=O [Example 351] | – | 4.54 [a] | 93% | – | 75% | – |
| CCC(C)(C)OC(=O)Nc1cccc(CO/N=C(/c2ccccc2)c2noc(=O)n2C)n1 [Example 120] | – | 1.99 [a] | 100% | 84% | 98% | – |
| Cc1cccc(/C(=N/OCc2cccc(NC(=O)OC(C)CC(C)C)n2)c2noc(=O)n2C)c1 (stereo not drawn) [Example 223] | 80% | 5.05 [a] | – | – | – | – |
| CCn1c(C(=NOCc2cccc(NC(=O)OCCc3ccccc3)n2)c2ccccc2)noc1=O [Example 270] | 86% | 4.41 [a] | 100% | – | – | – |
| Cn1c(/C(=N\OCc2cccc(N(C(=O)Oc3ccc(F)cc3)C(=O)Oc3ccc(F)cc3)n2)c2ccccc2)noc1=O [Example 330] | 83% | 4.2 [a] | – | – | – | – |
| CCCCOC(=O)Nc1cccc(CO/N=C(/c2cccc(C)c2)c2noc(=O)n2C)n1 [Example 215] | – | 4.36 [a] | 98% | – | 81% | – |
| CCCCCCC(=O)Nc1cccc(CO/N=C(/c2ccccc2)c2noc(=O)n2C)n1 [Example 8] | – | 4.3 [a] | 100% | 99% | – | 98% |
| Cn1c(/C(=N\OCc2cccc(NC(=O)OCCc3ccccc3)n2)c2ccccc2)noc1=O [Example 7] | – | 4.15 [a] | – | 96% | – | 95% |
| COc1cccc(/C(=N/OCc2cccc(NC(=O)OCCc3ccccc3)n2)c2noc(=O)n2C)c1 [Example 325] | – | 4.19 [a] | 99% | 84% | 75% | – |
| CCCCC(=O)Nc1nc(CO/N=C(/c2ccccc2)c2noc(=O)n2C)cs1 [Example 13] | – | 3.37 [a] | – | 93% | – | 95% |
| Cn1c(/C(=N\OCc2csc(NC(=O)c3cccc(F)c3)n2)c2ccccc2)noc1=O [Example 20] | – | 3.6 [a] | – | 94% | – | 95% |
| Cn1c(/C(=N\OCc2cccc(NC(=O)c3cccc(F)c3)n2)c2ccccc2)noc1=O [Example 17] | – | 3.69 [a] | – | 94% | – | 98% |
| CCCCCCC(=O)Nc1nc(CO/N=C(/c2ccccc2)c2noc(=O)n2C)cs1 [Example 9] | – | 4.13 [a] | – | 94% | – | 95% |
| Cn1c(/C(=N\OCc2csc(NC(=O)C3COc4ccccc4O3)n2)c2ccccc2)noc1=O (stereo not drawn) [Example 10] | – | 3.62 [a] | – | 96% | – | 95% |
| Cn1c(/C(=N\OCc2cccc(NC/C=N/OCc3ccccc3)n2)c2ccccc2)noc1=O [Example 136] | – | 3.35 [a] | – | 75% | – | 95% |
| COc1ccc(/C(=N/OCc2cccc(NC(=O)C(F)(F)F)n2)c2noc(=O)n2C)cc1 [Example 191] | – | 3.37 [a] | 95% | – | 89% | – |
| C#CCCOC(=O)Nc1cccc(CO/N=C(/c2ccccc2)c2noc(=O)n2CC=C)n1 [Example 405] | – | 3.61 [a] | – | 85% | – | 95% |
